The subject of test [1] is antennectomized male German cockroaches. Put plainly: Choice test arena behavioral assay of antennectomized male cockroaches. In kind it is in vivo, Blattella germanica. The settings on record: Annectomized male cockroaches; 1600 μg/cm^2. How it is done: Testing Procedure. Male cockroaches were antennectomized by using a razor blade to remove the antennae as close to the head as possible. The cockroaches were allowed to recover from the procedure for 24 hours before being exposed to the test compounds in the bioassay described in Example 1. Results.

In test [2] the test system is female German cockroach. Put plainly: Choice test arena repellency, female German cockroach. In kind it is in vivo, Blattella germanica. Further details: key: seconds spent on the side during a 300-second period. The settings on record: 10% by volume (1600 μg/cm^2) vs. acetone. As for the experimental part: One Whatman 125-mm round filter paper was cut in half. One side was treated with one (1) ml of the test compound and the other side was treated with one (1) ml of solvent. The papers were allowed to dry in a fume hood for approximately two (2) minutes before being placed in a 150-mm Petri dish arena. The relative position of the treated side (i.e., to the right or left) of the dish was randomized using a random number table. […] The hole was stopped using a small piece of tape to prevent the insect from escaping. One adult male German cockroach (Blattella germanica) was selected from the colony and dropped into the pre-formed hole in the Petri dish lid. Immediately after introduction of the cockroach, the number of seconds the cockroach spent on the treated or untreated side during a 300-second (five (5) minute) period was recorded with two different (2) stopwatches. Ten (10) replications were performed for each test compound.
Testing methods and materials. In this experiment, female German cockroaches were tested in the same manner described in Example 1 against the steam distillates of catnip and the Osage orange. Testing using the commercial repellent, DEET, was also performed for comparison. It is known that male cockroaches are generally more sensitive to repellents, such as DEET, than female cockroaches.

Test [3] concerns northern house mosquito, Culex pipiens. Put plainly: Static-air choice-test apparatus, percentage and contact repellency bioassay. In kind it is in vivo. The settings on record: 15 minutes. As for the experimental part:
A static-air choice-test apparatus as described above was used to determine the behavioral effects on the insects in this study. The apparatus consisted of a 9×60-cm section of glass tubing with a 2-cm hole drilled at the midpoint along the length for central introduction of the insects. All of the testing was conducted in an environmental chamber at 26° C.
Treatments included catnip essential oil, obtained by steam distillation as described herein and in Peterson, et al., J. Econ. Entomol., 2002, 95, 377-380. Osage orange essential oil, obtained by steam distillation of whole fruits previously described in Peterson, et al., J. Essential Oil Res., 2002, 14, 233-236, elemol (Augustus Oils, New Hampshire, England), and DEET (Aldrich, St. Louis, Mo.) test solutions at 1%, 0.5% and 0.1% concentrations (wt/vol). The test solutions' solvent, hexane, served as a control treatment in this assay.
One milliliter of the solution was applied to one half of a 9-cm diameter round filter paper with an area of 63.6 cm^2 and then allowed to dry before testing. […] Treated filter papers were placed inside the lids of 9-cm glass petri dishes, and placed over the ends of the glass tube. The position of the treated side, to the right or to the left, was selected by using a random-number table. Approximately fifteen unmated adult female mosquitoes were anaesthetized with CO2 and then introduced to the 9×60-cm glass cylinder through the centered 2-cm hole. Timing began two minutes after mosquito introduction, and mosquito distribution inside the static-air choice-test apparatus was observed over a 180-minute period for each treatment. Mosquito distribution (number of individuals on treated and untreated side) was recorded at 15, 30, 60, 90, 120, and 180-minute timepoints.
The data generated by this study was used to examine two measures of mosquito repellency, percentage repellency and contact repellency. Percentage repellency was calculated for with the following formula: Percentage Repellency=((Number of Individuals on Untreated Half-Number of Individuals on Treated Half)/15)×100.
Contact repellency was defined in this assay as 100% avoidance of the treated filter paper (no contact). 15, 30, 60, 90, 120, and 180-minute time-points were used to assess contact repellency for individual observations.
The experimental design was a completely randomized design using three replications of each treatment. Analysis of variance was performed on SAS (PROC GLM; SAS Version 8) to identify significant differences of percentage repellency due to treatment, and concentration. Multiple comparisions were completed using Tukey's procedure. Treatment pair-wise comparisons of contact repellency, which included data from the six time-points observed for each treatment, were completed using Fishers Exact (PROC FREQ; SAS Version 8).

Test [4] has the same test system. Description: Mosquito residual repellency bioassay (aged treated filter papers), static-air chamber. In kind it is in vivo. An excerpt:
Aged applications of catnip essential oil, elemol, DEET, and hexane (control) were compared in the static-air choice-test apparatus under the same conditions as described above. The 0.5% and 0.1% (wt/vol) solutions of each test solution were made to yield the same rate of active ingredient used in the above mosquito repellency bioassay. Individually treated filter papers were then placed in a fume hood and aged for 0, 30, 60, 120, or 180-minutes, allowing volatization to occur over a set period of time. After the specified ageing period, filter papers were placed on the inside of the 9-cm glass petri dish lids, and then placed over the ends of the glass tube. The position of the treated side was randomized. Approximately […] unmated adult female mosquitoes were anaesthetized with CO2 and then introduced to the 9×60-cm glass cylinder through the centered 2-cm hole. Timing began 2 minutes after mosquito introduction, and mosquito distribution (number of individuals on treated and untreated sides) inside the static-air choice-test apparatus was recorded after 15 minutes for determination of Percentage Repellency (calculations shown under Percentage and Contact Repellency Bioassay). Experimental design was completely randomized with three replications of each aged test solution. Analysis of variance was used to identify significant differences related to active ingredient, concentration, and ageing period. Regression analysis was used to examine percentage repellency relationship to filter paper ageing.

Setting [5] is: concentration 0.1% (15.7 μg/cm^2).
Setting [6] is: concentration 0.5% (78.6 μg/cm^2).
Where [7] appears, read: 15.7 μg/cm^2 (0.1%), treatment aged 0 min.
Setting [8] is: 15.7 μg/cm^2 (0.1%), treatment aged 30 min.
Where [9] appears, read: 15.7 μg/cm^2 (0.1%), treatment aged 60 min.
The mark [10] stands for this setting: 15.7 μg/cm^2 (0.1%), treatment aged 120 min.
Where [11] appears, read: 15.7 μg/cm^2 (0.1%), treatment aged 180 min.
The mark [12] stands for this setting: 78.6 μg/cm^2 (0.5%), treatment aged 0 min.
Where [13] appears, read: 78.6 μg/cm^2 (0.5%), treatment aged 30 min.
The mark [14] stands for this setting: 78.6 μg/cm^2 (0.5%), treatment aged 60 min.
Where [15] appears, read: 78.6 μg/cm^2 (0.5%), treatment aged 120 min.
The mark [16] stands for this setting: 78.6 μg/cm^2 (0.5%), treatment aged 180 min.

Where “and” joins values, the source holds several entries; their conditions need not be identical. Equal entries are not always repeated.

Consider `CCN(CC)C(=O)c1cccc(C)c1` [DEET, N,N-diethyl-3-methylbenzamide, reference compound], for which the “Mean seconds on treated side ± SEM” value in test [1] amounted to 148 ± 17.1 s. Further, the “Mean seconds on untreated side” value in test [1] was found to be 154 ± 17.2 s. In addition, the “treated, mean of 10 trials” value in test [2] is 144. Further, the “untreated, mean of 10 trials” value in test [2] was 156.9. The “treated (time on treated side), single trials 1-10” value in test [2] (300-second test as Example 1, in s (unit assumed)) was 99 and 166 and 116 and 181 and 157 and 146 and 137 and 150. The figures for the “Percentage Repellency” value in test [3] (setting [5]), in test [3] (setting [6]) and in test [3] (concentration 1% (157 μg/cm^2)) were 59.3%, 62.3% and 44.4%, respectively. Also, the “Percentage Repellency Over Time” value turned out to be 54.9% in test [4] (setting [7]); 23.1% in test [4] (setting [8]); 45.7% in test [4] (setting [9]); 39% in test [4] (setting [10]); 70.6% in test [4] (setting [11]); 74.0% in test [4] (setting [12]). Also, the “Percentage Repellency Over Time” value in test [4] (setting [13]) is given as 37%; in test [4] (setting [14]), 59%; in test [4] (setting [15]) it was 77.7%; in test [4] (setting [16]) it was 74%.

`C=CC1(C)CCC(C(C)(C)O)CC1C(=C)C` (stereo not shown) [Elemol]: the “Percentage Repellency” value is listed as 63.0% in test [3] (setting [5]), 81.3% in test [3] (setting [6]) and 74.1% in test [3] (concentration 1% (157 μg/cm^2)). Moreover, the “Percentage Repellency Over Time” value in test [4] (setting [7]) was found to be 35.0%; in test [4] (setting [8]) it was 30.8%; in test [4] (setting [9]) it was 49%; in test [4] (setting [10]) it was 20.7%; in test [4] (setting [11]) it was 44.8%; in test [4] (setting [12]) it was 84.7%. Besides, the “Percentage Repellency Over Time” value in test [4] (setting [13]) is given as 76.5%; in test [4] (setting [14]), 96.5%; in test [4] (setting [15]) it was 80.8%; in test [4] (setting [16]), 76.5%.

The values are drawn from patent US7939091B2, “Biorational repellents obtained from terpenoids for use against arthropods” (Iowa State University Research Foundation, Inc., priority 1999, dated 2011).
